From patent publication US10294234B2, “HIV inhibitor compounds” (priority 2017, dated 2019)

How the values were obtained:
[1] = system: HIV-1 (IIIB) in MT-4 cells; test: MT-4 HIV assay; assay type: cell-based; conditions: Human immunodeficiency virus 1, MT4, 120 h; HIV-1 (IIIB), MT-4 cells, 5 days, Cell Titer Glo; read-out: EC50
Method in brief: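 MT-4 cells infected with HIV-1 IIIB (1:250 stock dilution) were incubated with 1:3 serially diluted compounds in RPMI with 10% FBS for 5 days at 37 °C. Cell Titer Glo luminescence was the readout. Plates included mock-infected wells, no-drug wells and 5 uM AZT controls.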

[2] = microsomes
Method in brief: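 Dog, rat and human liver microsomes (0.5 mg/mL) with NADPH-regenerating cofactor; test compound 1 uM, duplicates. Timepoints 2, 12, 25, 45, 65 min; protein removed by centrifugation, supernatant analysed by LC/MS/MS. Clint from t1/2.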

in vivo [3] = test: in vivo
Method: Pharmacokinetic Profiling Dog PK
Each dosing group consisted of three non-naïve male beagle dogs. At dosing, the animals weighed between 9 to 12 kg. The animals were fasted overnight prior to dose administration and up to four hours after dosing. The test article was administered by intravenous infusion over 30-minutes. The rate of infusion was adjusted according to the body weight of each animal to deliver a dose of 0.5 or 1.0 mg/kg. For the oral dosing group, the test article was administered by oral gavage at a dose volume of 2 mL/kg.
Serial venous blood samples (approximately 1.0 mL each) were collected at predose and 0.25, 0.48, 0.58, 0.75, 1.0, 1.5, 2, 4, 8, 12 and 24 hours post dose from each animal for the IV dosing group; blood samples were collected at predose, 0.25, 0.50, 1, 2 4, 6, 8,12 and 24 hours post dose for the oral dosing group. The blood samples were collected into Vacutainer™ tubes containing EDTA-K2 as the anti-coagulant and were immediately placed on wet ice pending centrifugation for plasma. An LC/MS/MS method was used to measure the concentration of test compound in plasma. Non-compartmental pharmacokinetic analysis was performed on the plasma concentration-time data. VSS=apparent volume of distribution, t1/2=half life, F=oral bioavailability.

in vivo [4] = conditions: rat, in vivo; for Vd / RAT PO F: male, SD; for Vd / RAT IV CL / RAT IV T1/2: iv; for RAT PO F: 2.5 mg/kg
Method: Each dosing group consisted of 3 male naïve SD Rats. At dosing, the animals weighed between 0.27 to 0.32 kg. The animals were fasted overnight prior to dose administration. The test article was administered by intravenous infusion over 30 min. The rate of infusion was adjusted according to the body weight of each animal to deliver a dose of 0.5 or 1.0 mg/kg. For the oral dosing group, the test article was administered to animals by oral gavage administration. Serial venous blood samples (approximately 0.30 mL each) were taken at predose and 0.25, 0.48, 0.58, 0.75, 1.5, 3, 6, 8, 12 and 24 hours post dose for the IV dosing group animals. Blood samples were taken at predose, 0.25, 0.50, 1, 2, 4, 6, 8, 12 and 24 hours post dose for the oral group animals. The blood samples were collected into Vacutainer™ tubes containing EDTA-K2 as the anti-coagulant and were immediately placed on wet ice pending centrifugation for plasma. An LC/MS/MS method was used to measure the concentration of test compound in plasma. Non-compartmental pharmacokinetic analysis was performed on the plasma concentration-time data.

[5] = 3H Human Predicted Clearance Assay (tritiated analogs); assay type: in vitro ADME; conditions: human, 1 uM
Method: 3H Human Predicted Clearance Assay:
For certain compounds, tritiated analogs (H^3) were prepared to further determined their human predicted clearance with increased resolution. Those studies were performed as described above using the tritiated analogs. Data from those compounds is found in Table 2 below and reported in FIG. 1 (note ATV and DRV were not tritiated).

| Structure (SMILES) | EC50 [1] [nM] | Dog. Pred. Cl. [2] [L/H/kg] | Human Pred Cl. [2] [L/H/kg] | Rat. Pred. Cl. [2] [L/H/kg] | DOG IV CL (in vivo [3]; dog, in vivo, iv) [mL/min/kg] | DOG IV T1/2 (in vivo [3]; male beagle dogs, IV infusion over 30 minutes, 0.5 or 1.0 mg/kg) [h] | Vd (in vivo [3]; male, beagle, dog, in vivo, iv) [L/kg] | Vd (in vivo [4]) [L/kg] | RAT PO F (in vivo [4]) [%] | RAT IV CL (in vivo [4]) [mL/min/kg] | RAT IV T1/2 (in vivo [4]) [h] | 3H Human Predicted Cl. [5] |
| --- | --- | --- | --- | --- | --- | --- | --- | --- | --- | --- | --- | --- |
| COC(=O)N[C@H](C(=O)N[C@@H](Cc1ccc(C#Cc2ccc(N3CC4CCC(C3)N4C3COC3)nc2)cc1)[C@@H](O)CN(Cc1ccc(-c2cnn(C(F)F)c2)cc1)NC(=O)[C@@H](NC(=O)OC)C(C)(C)C(F)(F)F)C(C)(C)C(F)(F)F [Example 63, Methyl ((5S,8S,9S,14S)-11-(4-(1-(difluoromethyl)-1H-pyrazol-4-yl)benzyl)-16,16,16-trifluoro-9-hydroxy-15,15-dimethyl-8-(4-((6-(8-(oxetan-3-yl)-3,8-diazabicyclo[3.2.1]octan-3-yl)pyridin-3-yl)ethynyl)benzyl)-3,6,13-trioxo-5-(1,1,1-trifluoro-2-methylpropan-2-yl)-2-oxa-4,7,11,12-tetraazahexadecan-14-yl)carbamate] | 4.25 | 0.86 | <0.11 | 0.2 | 4.67 | 8.16 | 2.4 | 5.46 | 19 | 7 | 11.9 | – |
| COC(=O)N[C@H](C(=O)N[C@@H](Cc1ccc(C#Cc2ccc(N3CC4CCC(C3)N4C3COC3)nc2)cc1)[C@@H](O)CN(Cc1c(F)cc(-c2ccccn2)cc1Cl)NC(=O)[C@@H](NC(=O)OC)C(C)(C)C(F)(F)F)C(C)(C)C(F)(F)F [Example 74, Methyl ((5S,8S,9S,14S)-11-(2-chloro-6-fluoro-4-(pyridin-2-yl)benzyl)-16,16,16-trifluoro-9-hydroxy-15,15-dimethyl-8-(4-((6-(8-(oxetan-3-yl)-3,8-diazabicyclo[3.2.1]octan-3-yl)pyridin-3-yl)ethynyl)benzyl)-3,6,13-trioxo-5-(1,1,1-trifluoro-2-methylpropan-2-yl)-2-oxa-4,7,11,12-tetraazahexadecan-14-yl)carbamate] | 6.79 | 1.53 | 0.17 | 0.2 | – | – | – | 5.07 | 35.8 | 6.5 | 11.6 | – |
| COC(=O)N[C@H](C(=O)N[C@@H](Cc1ccc(C#Cc2ccc(N3CC4CCC(C3)N4C3COC3)nc2)cc1)[C@@H](O)CN(Cc1c(F)cc(-c2cn(C(F)F)cn2)cc1F)NC(=O)[C@@H](NC(=O)OC)C(C)(C)C(F)(F)F)C(C)(C)C(F)(F)F [Example 79, Methyl ((5S,8S,9S,14S)-11-(4-(1-(difluoromethyl)-1H-imidazol-4-yl)-2,6-difluorobenzyl)-16,16,16-trifluoro-9-hydroxy-15,15-dimethyl-8-(4-((6-(8-(oxetan-3-yl)-3,8-diazabicyclo[3.2.1]octan-3-yl)pyridin-3-yl)ethynyl)benzyl)-3,6,13-trioxo-5-(1,1,1-trifluoro-2-methylpropan-2-yl)-2-oxa-4,7,11,12-tetraazahexadecan-14-yl)carbamate] | 3.53 | – | <0.11 | <0.18 | – | – | – | 4.07 | 13.1 | 12.8 | 5.13 | – |
| COC(=O)N[C@H](C(=O)N[C@@H](Cc1ccc(C#Cc2ccc(N3CC4CCC(C3)N4C3COC3)nc2)cc1)[C@@H](O)CN(Cc1c(F)cc(-c2ccccn2)cc1F)NC(=O)[C@@H](NC(=O)OC)C(C)(C)C(F)(F)F)C(C)(C)C(F)(F)F [Example 130, Methyl ((5S,8S,9S,14S)-11-(2,6-difluoro-4-(pyridin-2-yl)benzyl)-16,16,16-trifluoro-9-hydroxy-15,15-dimethyl-8-(4-((6-(8-(oxetan-3-yl)-3,8-diazabicyclo 3.2.1 octan-3-yl)pyridin-3-yl)ethynyl)benzyl)-3,6,13-trioxo-5-(1,1,1-trifluoro-2-methylpropan-2-yl)-2-oxa-4,7,11,12-tetraazahexadecan-14-yl)carbamate] | 3.41 | – | 0.32 | <0.18 | – | – | – | 5.27 | 55.7 | 6.5 | 11.5 | – |
| COC(=O)N[C@H](C(=O)N[C@@H](Cc1ccc(C#Cc2cnc(N3CC4CCC(C3)N4C3COC3)c(C)c2)cc1)[C@@H](O)CN(Cc1c(F)cc(-c2cnn(C(F)F)c2)cc1F)NC(=O)[C@@H](NC(=O)OC)C(C)(C)C(F)(F)F)C(C)(C)C(F)(F)F [Example 153, Methyl ((5S,8S,9S,14S)-11-(4-(1-(difluoromethyl)-1H-pyrazol-4-yl)-2,6-difluorobenzyl)-16,16,16-trifluoro-9-hydroxy-15,15-dimethyl-8-(4-((5-methyl-6-(8-(oxetan-3-yl)-3,8-diazabicyclo[3.2.1]octan-3-yl)pyridin-3-yl)ethynyl)benzyl)-3,6,13-trioxo-5-(1,1,1-trifluoro-2-methylpropan-2-yl)-2-oxa-4,7,11,12-tetraazahexadecan-14-yl)carbamate] | – | – | – | – | – | – | – | – | – | – | – | 0.43 |
| COC(=O)N[C@H](C(=O)N[C@@H](Cc1ccc(C#Cc2ccc(N3CC4COCC(C3)N4C3COC3)nc2)cc1)[C@@H](O)CN(Cc1c(F)cc(-c2ccn(C(F)F)n2)cc1F)NC(=O)[C@@H](NC(=O)OC)C(C)(C)C(F)(F)F)C(C)(C)C(F)(F)F [Example 180, Methyl ((5S,8S,9S,14S)-11-(4-(1-(difluoromethyl)-1H-pyrazol-3-yl)-2,6-difluorobenzyl)-16,16,16-trifluoro-9-hydroxy-15,15-dimethyl-8-(4-((6-(9-(oxetan-3-yl)-3-oxa-7,9-diazabicyclo[3.3.1]nonan-7-yl)pyridin-3-yl)ethynyl)benzyl)-3,6,13-trioxo-5-(1,1,1-trifluoro-2-methylpropan-2-yl)-2-oxa-4,7,11,12-tetraazahexadecan-14-yl)carbamate] | 3.69 | – | <0.11 | <0.18 | – | – | – | 0.52 | 4.29 | 6.5 | 2.81 | – |
| COC(=O)N[C@H](C(=O)NN(Cc1c(F)cc(-c2ccn(C(F)F)n2)cc1F)C[C@H](O)[C@H](Cc1ccc(C#Cc2cnc(N3CC4CCC(C3)N4C3COC3)nc2)cc1)NC(=O)[C@@H](NC(=O)C1CC1)C(C)(C)C(F)(F)F)C(C)(C)C(F)(F)F [Example 221, Methyl ((2S)-1-(2-((2S,3S)-3-((S)-2-(cyclopropanecarboxamido)-4,4,4-trifluoro-3,3-dimethylbutanamido)-2-hydroxy-4-(4-((2-(8-(oxetan-3-yl)-3,8-diazabicyclo[3.2.1]octan-3-yl)pyrimidin-5-yl)ethynyl)phenyl)butyl)-2-(4-(1-(difluoromethyl)-1H-pyrazol-3-yl)-2,6-difluorobenzyl)hydrazinyl)-4,4,4-trifluoro-3,3-dimethyl-1-oxobutan-2-yl)carbamate] | 4.49 | 0.14 | <0.11 | 0.28 | – | – | – | 4.41 | 19.9 | 5.33 | 11.5 | – |
